According to PubChem BioAssay (NCI):
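96-well plates; 48 h exposure; 5 concentrations. Endpoints by linear interpolation between flanking doses. Not reached: highest tested concentration assigned. GI50 is the concentration that inhibits growth by half. Definition used: TGI = concentration required for complete inhibition of growth.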

Tests used:
Test in all cases: growth of human tumour cells (NCI), 48 h
[1] = system: MDA-MB-435
[2] = system: NCI/ADR-RES ovarian
[3] = system: NCI-H226 lung
[4] = system: UACC-62 melanoma
[5] = system: SF-268 CNS
[6] = system: OVCAR-4 ovarian
[7] = system: K-562 leukemia
[8] = system: CCRF-CEM leukemia
[9] = system: RPMI-8226 leukemia
[10] = system: SF-539 CNS
[11] = system: SK-MEL-2 melanoma
[12] = system: A549 NSCLC
[13] = system: SNB-19 CNS
[14] = system: UACC-257 melanoma
[15] = system: SNB-75 CNS
[16] = system: PC-3 prostate
[17] = system: SN12C renal
[18] = system: HCT-116 colon
[19] = system: TK-10 renal
[20] = system: NCI-H460 lung
[21] = system: HS 578T breast
[22] = system: HCC-2998 colon
[23] = system: IGROV1 ovarian
[24] = system: EKVX NSCLC
[25] = system: CAKI-1 renal
[26] = system: SF-295 CNS
[27] = system: T-47D breast
[28] = system: NCI-H23 lung
[29] = system: SK-MEL-28 melanoma
[30] = system: HL-60(TB) leukemia
[31] = system: MALME-3M melanoma
[32] = system: COLO 205 colon
[33] = system: ACHN renal
[34] = system: RXF 393 renal
[35] = system: OVCAR-5 ovarian
[36] = system: DU-145 prostate
[37] = system: HCT-15 colon
[38] = system: HOP-92 NSCLC
[39] = system: OVCAR-8 ovarian
[40] = system: SK-MEL-5 melanoma
[41] = system: LOX IMVI melanoma
[42] = system: KM12 colon
[43] = system: BT-549 breast
[44] = system: M14 melanoma
[45] = system: NCI-H522 lung
[46] = system: MCF7 breast
[47] = system: OVCAR-3 ovarian
[48] = system: MDA-MB-468 breast
[49] = system: U251 CNS
[50] = system: SW-620 colon
[51] = system: SK-OV-3 ovarian
[52] = system: 786-0 renal
[53] = system: A498 renal
[54] = system: MOLT-4 leukemia
[55] = system: HOP-62 NSCLC
[56] = system: HT29 colon

In the case of `COc1cccc(-c2ccc(/C=N/NC(=O)c3[nH]c4ccc(Br)cc4c3-c3ccccc3)o2)c1`, the GI50 [1] was 2.72 µM, the TGI [1] was 8.57 µM and the GI50 [2] was 2.4 µM. It also gave a TGI [2] of 6.26 µM, a GI50 [3] of 10.2 µM and a TGI [3] of 50.6 µM. For the same compound, the GI50 [4] was 4.17 µM, the TGI [4] was > 100 µM and the GI50 [5] was 4.94 µM. For the same compound, the TGI [5] was 48.3 µM, the GI50 [6] was 26.2 µM and the TGI [6] was > 100 µM. For the same compound, the GI50 [7] was 2.89 µM, the TGI [7] was 12.9 µM and the GI50 [8] was 4.19 µM. For the same compound, the TGI [8] was 9.66 µM, the GI50 [9] was 3.05 µM and the TGI [9] was 10.9 µM. It also gave a GI50 [10] of 2.35 µM, a TGI [10] of 5.51 µM and a GI50 [11] of 3.04 µM. For the same compound, the TGI [11] was 9.76 µM, the GI50 [12] was 3.55 µM and the TGI [12] was 17.7 µM. It also gave a GI50 [13] of 3.84 µM, a TGI [13] of 20.2 µM and a GI50 [14] of 6.86 µM. The TGI [14] was 69.2 µM, the GI50 [15] was 2.87 µM and the TGI [15] was 15.1 µM. The GI50 [16] was 3.96 µM, the TGI [16] was 75 µM and the GI50 [17] was 4.13 µM. The TGI [17] was 18.9 µM, the GI50 [18] was 3.33 µM and the TGI [18] was 12.3 µM. The GI50 [19] was 29.1 µM, the TGI [19] was > 100 µM and the GI50 [20] was 3.26 µM. It also gave a TGI [20] of 18 µM, a GI50 [21] of 3.73 µM and a TGI [21] of 41.2 µM. The GI50 [22] was 4.16 µM, the TGI [22] was 72.9 µM and the GI50 [23] was 4.6 µM. For the same compound, the TGI [23] was > 100 µM, the GI50 [24] was 6.71 µM and the TGI [24] was > 100 µM. For the same compound, the GI50 [25] was 11.4 µM, the TGI [25] was > 100 µM and the GI50 [26] was 3.16 µM. For the same compound, the TGI [26] was 14.1 µM, the GI50 [27] was 7.94 µM and the TGI [27] was > 100 µM. For the same compound, the GI50 [28] was 5.23 µM, the TGI [28] was 40.3 µM and the GI50 [29] was 7.18 µM. For the same compound, the TGI [29] was 52.9 µM, the GI50 [30] was 2.21 µM and the TGI [30] was 5.08 µM. The GI50 [31] was 3.72 µM, the TGI [31] was 32.6 µM and the GI50 [32] was 2.48 µM. For the same compound, the TGI [32] was 7.74 µM, the GI50 [33] was 5.43 µM and the TGI [33] was > 100 µM. It also gave a GI50 [34] of 2.37 µM, a TGI [34] of 5.93 µM and a GI50 [35] of 4.31 µM. The TGI [35] was 44.9 µM, the GI50 [36] was 4.19 µM and the TGI [36] was > 100 µM. It also gave a GI50 [37] of 3.34 µM, a TGI [37] of 16.9 µM and a GI50 [38] of 12.8 µM. It also gave a TGI [38] of 46 µM, a GI50 [39] of 2.39 µM and a TGI [39] of 5.57 µM. For the same compound, the GI50 [40] was 2.94 µM, the TGI [40] was 11.3 µM and the GI50 [41] was 3.84 µM. The TGI [41] was 16.6 µM, the GI50 [42] was 3.96 µM and the TGI [42] was 49.6 µM. The GI50 [43] was 2.8 µM, the TGI [43] was 7.06 µM and the GI50 [44] was 3.49 µM. For the same compound, the TGI [44] was > 100 µM, the GI50 [45] was 2 µM and the TGI [45] was 4.72 µM. For the same compound, the GI50 [46] was 3.5 µM, the TGI [46] was > 100 µM and the GI50 [47] was 2.48 µM. The TGI [47] was 8.6 µM, the GI50 [48] was 2.29 µM and the TGI [48] was 6.38 µM. It also gave a GI50 [49] of 3.44 µM, a TGI [49] of 12.7 µM and a GI50 [50] of 4.6 µM. The TGI [50] was > 100 µM, the GI50 [51] was 3.61 µM and the TGI [51] was 36.2 µM. For the same compound, the GI50 [52] was 2.84 µM, the TGI [52] was 8.73 µM and the GI50 [53] was 93.2 µM. For the same compound, the TGI [53] was > 100 µM, the GI50 [54] was 3.34 µM and the TGI [54] was 12.3 µM. For the same compound, the GI50 [55] was 3.54 µM, the TGI [55] was 15.3 µM and the GI50 [56] was 2.36 µM. The TGI [56] was 5.47 µM.
